# Counter-ions that a name gives are not always drawn.
# Experiments:
# Experiment in all cases: MIC, NCCLS broth microdilution
# Assay type in all cases: cell-based
# [1] = test system: Klebsiella pneumoniae CF104; conditions: for MIC of antibiotic: antibiotic alone, no inhibitor; for MIC of antibiotic at fixed inhibitor concentration (4 mg/L): MIC of antibiotic compound 1 with the labelled bridged monobactam of formula II and clavulanate, 4 mg/L each
# Enterobacter cloacae P99 = conditions: for MIC of antibiotic: antibiotic alone, no inhibitor; for MIC of antibiotic at fixed inhibitor concentration (4 mg/L): MIC of antibiotic compound 1 with the labelled bridged monobactam of formula II and clavulanate, 4 mg/L each
# Method: Antimicrobial activity of the compounds and of their combinations was determined against a selection of organisms according to the standard procedures described by the National Committee for Clinical Laboratory Standards (National Committee for Clinical Laboratory. Standards (2000). Methods for Dilution Antimicrobial Susceptibility Tests for Bacteria That Grow Aerobically-Fifth Edition: Approved Standard M7-A5. NCCLS, Wayne, Pa., USA).
# In all cases the final concentration of DMSO incubated with the bacteria is less than or equal to 1%. […] Plates were incubated overnight at an appropriate temperature (30° C. or 37° C.) and optical densities assessed by eye. The MIC value is defined as the lowest compound concentration completely inhibiting visible growth of the test organism. When combinations between compounds of formula I with compounds of formula II and are evaluated the compounds of formula I are tested in dilution series as described above while the compounds of formula II and III-XIII were present in all wells at a constant concentration of 4 μg/mL each.
# [2] = test system: Pseudomonas aeruginosa MK1184; conditions: for MIC of antibiotic: antibiotic alone, no inhibitor; for MIC of antibiotic at fixed inhibitor concentration (4 mg/L): MIC of antibiotic compound 1 with the labelled bridged monobactam of formula II and clavulanate, 4 mg/L each
# [3] = test system: Stenotrophomonas malthophilia 1AC736; conditions: for MIC of antibiotic / MIC of antibiotic at fixed inhibitor concentration of 4 mg/L: Stenotrophomonas maltophilia 1AC736; for MIC of antibiotic: antibiotic alone, no inhibitor; for MIC of antibiotic at fixed inhibitor concentration (4 mg/L): Stenotrophomonas malthophilia 1AC736, MIC of antibiotic compound 1 with the labelled bridged monobactam of formula II and clavulanate, 4 mg/L each
# Acinetobacter sp. J2 = conditions: for MIC of antibiotic / MIC of antibiotic at fixed inhibitor concentration of 4 mg/L: Acinetobacter baumannii J2; for MIC of antibiotic: antibiotic alone, no inhibitor; for MIC of antibiotic at fixed inhibitor concentration (4 mg/L): Acinetobacter sp. J2, MIC of antibiotic compound 1 with the labelled bridged monobactam of formula II and clavulanate, 4 mg/L each
# [4] = test system: Pseudomonas aeruginosa 1973E; conditions: for MIC of antibiotic: antibiotic alone, no inhibitor; for MIC of antibiotic at fixed inhibitor concentration (4 mg/L): MIC of antibiotic compound 1 with the labelled bridged monobactam of formula II and clavulanate, 4 mg/L each
# In short: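 Broth microdilution following NCCLS M7-A5, with final DMSO ≤1%. Plates were incubated overnight at 30° C. or 37° C. and growth was read by eye; MIC is the lowest concentration giving complete inhibition of visible growth. In combination tests the formula I compound was serially diluted while partner compounds were held at 4 μg/mL each.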
# Serratia marcescens S6 = conditions: for MIC of antibiotic: antibiotic alone, no inhibitor; for MIC of antibiotic at fixed inhibitor concentration (4 mg/L): MIC of antibiotic compound 1 with the labelled bridged monobactam of formula II and clavulanate, 4 mg/L each
smiles,measurement,setting,value
"C[C@H]1[C@H](NC(=O)/C(=N\OCc2cc(=O)c(O)cn2O)c2nccc(N)n2)C(=O)N1S(=O)(=O)O [Compound 21, (3S,4S)-3-{(2Z)-2-(4-aminopyrimidin-2-yl)-3-[(1,5-dihydroxy-4-oxo(2-hydropyridyl))methoxy]-3-azaprop-2-enoylamino}-4-methyl-2-oxoazetidinesulfonic acid]",MIC of antibiotic,[1],>32 µg/mL
same,MIC of antibiotic at fixed inhibitor concentration of 4 mg/L,[1]; with 102 and clavulanate,<0.06 µg/mL
same,MIC of antibiotic at fixed inhibitor concentration of 4 mg/L,[1]; with 102 and sulbactam,2 µg/mL
same,MIC of antibiotic at fixed inhibitor concentration of 4 mg/L,[1]; with 323 and clavulanate,2 µg/mL
same,MIC of antibiotic at fixed inhibitor concentration of 4 mg/L,[1]; with 323 and sulbactam,1 µg/mL
same,MIC of antibiotic at fixed inhibitor concentration of 4 mg/L,[1]; with 324 and sulbactam,4 µg/mL
same,MIC of antibiotic,Enterobacter cloacae P99,>32 µg/mL
same,MIC of antibiotic at fixed inhibitor concentration of 4 mg/L,Enterobacter cloacae P99; with 102 and clavulanate,32 µg/mL
same,MIC of antibiotic at fixed inhibitor concentration of 4 mg/L,Enterobacter cloacae P99; with 102 and sulbactam,32 µg/mL
same,MIC of antibiotic at fixed inhibitor concentration of 4 mg/L,Enterobacter cloacae P99; with 323 and clavulanate,8 µg/mL
same,MIC of antibiotic at fixed inhibitor concentration of 4 mg/L,Enterobacter cloacae P99; with 323 and sulbactam,8 µg/mL
same,MIC of antibiotic at fixed inhibitor concentration of 4 mg/L,Enterobacter cloacae P99; with 324 and sulbactam,8 µg/mL
same,MIC of antibiotic,[2],>32 µg/mL
same,MIC of antibiotic at fixed inhibitor concentration of 4 mg/L,[2]; with 102 and clavulanate,16 µg/mL
same,MIC of antibiotic at fixed inhibitor concentration of 4 mg/L,[2]; with 102 and sulbactam,32 µg/mL
same,MIC of antibiotic at fixed inhibitor concentration of 4 mg/L,[2]; with 323 and clavulanate,32 µg/mL
same,MIC of antibiotic at fixed inhibitor concentration of 4 mg/L,[2]; with 323 and sulbactam,8 µg/mL
same,MIC of antibiotic at fixed inhibitor concentration of 4 mg/L,[2]; with 324 and sulbactam,32 µg/mL
same,MIC of antibiotic,[3],8 µg/mL
same,MIC of antibiotic at fixed inhibitor concentration of 4 mg/L,[3]; with 102 and clavulanate,2 µg/mL
same,MIC of antibiotic at fixed inhibitor concentration of 4 mg/L,[3]; with 102 and sulbactam,8 µg/mL
same,MIC of antibiotic at fixed inhibitor concentration of 4 mg/L,[3]; with 323 and clavulanate,2 µg/mL
same,MIC of antibiotic at fixed inhibitor concentration of 4 mg/L,[3]; with 323 and sulbactam,4 µg/mL
same,MIC of antibiotic at fixed inhibitor concentration of 4 mg/L,[3]; with 324 and sulbactam,4 µg/mL
same,MIC of antibiotic,Acinetobacter sp. J2,>32 µg/mL
same,MIC of antibiotic at fixed inhibitor concentration of 4 mg/L,Acinetobacter sp. J2; with 102 and clavulanate,>32 µg/mL
same,MIC of antibiotic at fixed inhibitor concentration of 4 mg/L,Acinetobacter sp. J2; with 102 and sulbactam,2 µg/mL
same,MIC of antibiotic at fixed inhibitor concentration of 4 mg/L,Acinetobacter sp. J2; with 323 and clavulanate,8 µg/mL
same,MIC of antibiotic at fixed inhibitor concentration of 4 mg/L,Acinetobacter sp. J2; with 323 and sulbactam,2 µg/mL
same,MIC of antibiotic at fixed inhibitor concentration of 4 mg/L,Acinetobacter sp. J2; with 324 and sulbactam,2 µg/mL
same,MIC of antibiotic,[4],8 µg/mL
same,MIC of antibiotic at fixed inhibitor concentration of 4 mg/L,[4]; with 102 and clavulanate,8 µg/mL
same,MIC of antibiotic at fixed inhibitor concentration of 4 mg/L,[4]; with 102 and sulbactam,16 µg/mL
same,MIC of antibiotic at fixed inhibitor concentration of 4 mg/L,[4]; with 323 and clavulanate,16 µg/mL
same,MIC of antibiotic at fixed inhibitor concentration of 4 mg/L,[4]; with 323 and sulbactam,32 µg/mL
same,MIC of antibiotic at fixed inhibitor concentration of 4 mg/L,[4]; with 324 and sulbactam,16 µg/mL
same,MIC of antibiotic,Serratia marcescens S6,8 µg/mL
same,MIC of antibiotic at fixed inhibitor concentration of 4 mg/L,Serratia marcescens S6; with 102 and clavulanate,0.5 µg/mL
same,MIC of antibiotic at fixed inhibitor concentration of 4 mg/L,Serratia marcescens S6; with 102 and sulbactam,16 µg/mL
same,MIC of antibiotic at fixed inhibitor concentration of 4 mg/L,Serratia marcescens S6; with 323 and clavulanate,2 µg/mL
same,MIC of antibiotic at fixed inhibitor concentration of 4 mg/L,Serratia marcescens S6; with 323 and sulbactam,2 µg/mL
same,MIC of antibiotic at fixed inhibitor concentration of 4 mg/L,Serratia marcescens S6; with 324 and sulbactam,4 µg/mL
CC1(C)C(NC(=O)C(=NOCc2cc(=O)c(O)cn2O)c2nsc(N)n2)C(=O)N1OS(=O)(=O)O (stereo not shown) [Compound 32],MIC of antibiotic,[1],>32 µg/mL
same,MIC of antibiotic at fixed inhibitor concentration of 4 mg/L,[1]; with 102 and clavulanate,1 µg/mL
same,MIC of antibiotic at fixed inhibitor concentration of 4 mg/L,[1]; with 324 and clavulanate,2 µg/mL
same,MIC of antibiotic,Enterobacter cloacae P99,32 µg/mL
same,MIC of antibiotic at fixed inhibitor concentration of 4 mg/L,Enterobacter cloacae P99; with 102 and clavulanate,8 µg/mL
same,MIC of antibiotic at fixed inhibitor concentration of 4 mg/L,Enterobacter cloacae P99; with 324 and clavulanate,4 µg/mL
same,MIC of antibiotic,[2],4 µg/mL
same,MIC of antibiotic at fixed inhibitor concentration of 4 mg/L,[2]; with 102 and clavulanate,4 µg/mL
same,MIC of antibiotic at fixed inhibitor concentration of 4 mg/L,[2]; with 324 and clavulanate,4 µg/mL
same,MIC of antibiotic,[3],0.5 µg/mL
same,MIC of antibiotic at fixed inhibitor concentration of 4 mg/L,[3]; with 102 and clavulanate,0.5 µg/mL
same,MIC of antibiotic at fixed inhibitor concentration of 4 mg/L,[3]; with 324 and clavulanate,0.5 µg/mL
same,MIC of antibiotic,Acinetobacter sp. J2,>32 µg/mL
same,MIC of antibiotic at fixed inhibitor concentration of 4 mg/L,Acinetobacter sp. J2; with 102 and clavulanate,4 µg/mL
same,MIC of antibiotic at fixed inhibitor concentration of 4 mg/L,Acinetobacter sp. J2; with 324 and clavulanate,8 µg/mL
same,MIC of antibiotic,[4],16 µg/mL
same,MIC of antibiotic at fixed inhibitor concentration of 4 mg/L,[4]; with 102 and clavulanate,8 µg/mL
same,MIC of antibiotic at fixed inhibitor concentration of 4 mg/L,[4]; with 324 and clavulanate,8 µg/mL
same,MIC of antibiotic,Serratia marcescens S6,0.5 µg/mL
same,MIC of antibiotic at fixed inhibitor concentration of 4 mg/L,Serratia marcescens S6; with 102 and clavulanate,0.25 µg/mL
same,MIC of antibiotic at fixed inhibitor concentration of 4 mg/L,Serratia marcescens S6; with 324 and clavulanate,0.25 µg/mL
"CCOC(=O)Cc1ccc[n+](CC(=O)N2CC[C@@H]3[C@H]2C(=O)N3S(=O)(=O)[O-])c1 [Compound 119, (1S,5R)-2-(2-{3-[(ethoxycarbonyl)methyl]pyridinium}acetyl)-7-oxo-2,6-diazabicyclo[3.2.0]heptane-6-sulfonate, inner salt]",MIC of antibiotic at fixed inhibitor concentration (4 mg/L),[1],0.125 µg/mL
same,MIC of antibiotic at fixed inhibitor concentration (4 mg/L),Enterobacter cloacae P99,>32 µg/mL
same,MIC of antibiotic at fixed inhibitor concentration (4 mg/L),[2],32 µg/mL
same,MIC of antibiotic at fixed inhibitor concentration (4 mg/L),[3],0.125 µg/mL
same,MIC of antibiotic at fixed inhibitor concentration (4 mg/L),Acinetobacter sp. J2,>32 µg/mL
same,MIC of antibiotic at fixed inhibitor concentration (4 mg/L),[4],4 µg/mL
same,MIC of antibiotic at fixed inhibitor concentration (4 mg/L),Serratia marcescens S6,0.25 µg/mL
"O=C(NC1CC1)c1ccc[n+](CC(=O)N2CC[C@@H]3[C@H]2C(=O)N3S(=O)(=O)[O-])c1 [Compound 109, (1S,5R)-2-{2-[3-(N-cyclopropylcarbamoyl)pyridinium]acetyl}-7-oxo-2,6-diazabicyclo[3.2.0]heptane-6-sulfonate, inner salt]",MIC of antibiotic at fixed inhibitor concentration (4 mg/L),[1],0.5 µg/mL
same,MIC of antibiotic at fixed inhibitor concentration (4 mg/L),Enterobacter cloacae P99,32 µg/mL
same,MIC of antibiotic at fixed inhibitor concentration (4 mg/L),[2],16 µg/mL
same,MIC of antibiotic at fixed inhibitor concentration (4 mg/L),[3],0.125 µg/mL
same,MIC of antibiotic at fixed inhibitor concentration (4 mg/L),Acinetobacter sp. J2,4 µg/mL
same,MIC of antibiotic at fixed inhibitor concentration (4 mg/L),[4],4 µg/mL
same,MIC of antibiotic at fixed inhibitor concentration (4 mg/L),Serratia marcescens S6,0.125 µg/mL
"CCC(=O)c1cc[n+](CC(=O)N2CC[C@@H]3[C@H]2C(=O)N3S(=O)(=O)[O-])cc1 [Compound 117, (1S,5R)-7-oxo-2-[2-(4-propanoylpyridinium)acetyl]-2,6-diazabicyclo[3.2.0]heptane-6-sulfonate, inner salt]",MIC of antibiotic at fixed inhibitor concentration (4 mg/L),[1],0.125 µg/mL
same,MIC of antibiotic at fixed inhibitor concentration (4 mg/L),Enterobacter cloacae P99,32 µg/mL
same,MIC of antibiotic at fixed inhibitor concentration (4 mg/L),[2],16 µg/mL
same,MIC of antibiotic at fixed inhibitor concentration (4 mg/L),[3],0.25 µg/mL
same,MIC of antibiotic at fixed inhibitor concentration (4 mg/L),Acinetobacter sp. J2,>32 µg/mL
same,MIC of antibiotic at fixed inhibitor concentration (4 mg/L),[4],4 µg/mL
same,MIC of antibiotic at fixed inhibitor concentration (4 mg/L),Serratia marcescens S6,0.25 µg/mL
"C[N+]1(CC(=O)N2CC[C@@H]3[C@H]2C(=O)N3S(=O)(=O)[O-])CCN(C(=O)n2ccnc2)CC1 [Compound 407, (1S,5R)-2-{2-[4-(imidazolylcarbonyl)-1-methylpiperazinium]acetyl}-7-oxo-2,6-diazabicyclo[3.2.0]heptane-6-sulfonate, inner salt]",MIC of antibiotic at fixed inhibitor concentration (4 mg/L),[1],1 µg/mL
same,MIC of antibiotic at fixed inhibitor concentration (4 mg/L),Enterobacter cloacae P99,32 µg/mL
same,MIC of antibiotic at fixed inhibitor concentration (4 mg/L),[2],>32 µg/mL
same,MIC of antibiotic at fixed inhibitor concentration (4 mg/L),[3],0.125 µg/mL
same,MIC of antibiotic at fixed inhibitor concentration (4 mg/L),Acinetobacter sp. J2,>32 µg/mL
same,MIC of antibiotic at fixed inhibitor concentration (4 mg/L),[4],8 µg/mL
same,MIC of antibiotic at fixed inhibitor concentration (4 mg/L),Serratia marcescens S6,0.5 µg/mL
